Reference: patent US7507727B2, “Substituted quinobenzoxazine analogs and methods of using thereof” (Cylene Pharmaceuticals, Inc., priority 2003, dated 2009)

Target: c-Myc template DNA (c-myc quadruplex)
Test: Quadruplex binding / stop assay (Taq polymerase arrest, capillary electrophoresis)
Conditions: read-out: S DATA; Table 1D, stop assay data

SMILES	IC50 [µM]
CC(C)N1CCN(c2c(F)cc3c(=O)c(C(=O)NCCN4CCOCC4)cn4c3c2Oc2ccccc2-4)CC1 [compound 1562]	> 15
CC(C)N1CCN(c2c(F)cc3c(=O)c(C(=O)NCCCN4CCN(C)CC4)cn4c3c2Oc2ccccc2-4)CC1 [compound 1563]	> 15
CC(C)N1CCN(c2c(F)cc3c(=O)c(C(=O)N4CCC(NC(=O)OC(C)(C)C)C4)cn4c3c2Oc2ccccc2-4)CC1 (stereo not drawn) [compound 1564]	> 15
CC(C)N1CCN(c2c(F)cc3c(=O)c(C(=O)NCCC4CCCN4C)cn4c3c2Oc2ccccc2-4)CC1 (stereo not drawn) [compound 1565]	> 15
CC(C)N1CCN(c2c(F)cc3c(=O)c(C(=O)NCCN4CCCC4)cn4c3c2Oc2ccccc2-4)CC1 [compound 1566]	> 15
CC(C)N1CCN(c2c(F)cc3c(=O)c(C(=O)NCCCCN(C)C)cn4c3c2Oc2ccccc2-4)CC1 [compound 1567]	> 15
CC(C)N1CCN(c2c(F)cc3c(=O)c(C(=O)NCC(C)(C)CN(C)C)cn4c3c2Oc2ccccc2-4)CC1 [compound 1568]	> 15
CC(C)N1CCN(c2c(F)cc3c(=O)c(C(=O)N4CCC(N5CCCC5)CC4)cn4c3c2Oc2ccccc2-4)CC1 [compound 1569]	> 15
CC(C)N1CCN(c2c(F)cc3c(=O)c(C(=O)N4CCN(C)CC4)cn4c3c2Oc2ccccc2-4)CC1 [compound 1570]	> 15
CC(C)N1CCN(c2c(F)cc3c(=O)c(C(=O)NC4CC(C)(C)NC(C)(C)C4)cn4c3c2Oc2ccccc2-4)CC1 [compound 1571]	> 15
CN1CCN(CCCNc2c(F)cc3c(=O)c(C(=O)NCCCN4CCOCC4)cn4c3c2Oc2ccccc2-4)CC1 [compound 1572]	> 15
CN1CCN(CCCNc2c(F)cc3c(=O)c(C(=O)NCCN4CCOCC4)cn4c3c2Oc2ccccc2-4)CC1 [compound 1573]	> 15
CN1CCN(CCCNc2c(F)cc3c(=O)c(C(=O)N4CCC(NC(=O)OC(C)(C)C)C4)cn4c3c2Oc2ccccc2-4)CC1 (stereo not drawn) [compound 1574]	> 15
CN1CCN(CCCNc2c(F)cc3c(=O)c(C(=O)N4CCC(NC(=O)OC(C)(C)C)C4)cn4c3c2Oc2ccccc2-4)CC1 (stereo not drawn) [compound 1575]	> 15
CN1CCN(CCCNc2c(F)cc3c(=O)c(C(=O)NCCC4CCCN4C)cn4c3c2Oc2ccccc2-4)CC1 (stereo not drawn) [compound 1576]	> 15
CN1CCN(CCCNc2c(F)cc3c(=O)c(C(=O)NCCN4CCCC4)cn4c3c2Oc2ccccc2-4)CC1 [compound 1577]	> 15
CN(C)CCCCNC(=O)c1cn2c3c(c(NCCCN4CCN(C)CC4)c(F)cc3c1=O)Oc1ccccc1-2 [compound 1578]	> 15
CN1CCN(CCCNc2c(F)cc3c(=O)c(C(=O)NCCCCN)cn4c3c2Oc2ccccc2-4)CC1 [compound 1579]	> 15
CN(C)CC(C)(C)CNC(=O)c1cn2c3c(c(NCCCN4CCN(C)CC4)c(F)cc3c1=O)Oc1ccccc1-2 [compound 1580]	> 15
CN1CCN(CCCNc2c(F)cc3c(=O)c(C(=O)N4CCC(N5CCCC5)CC4)cn4c3c2Oc2ccccc2-4)CC1 [compound 1581]	> 15
CN1CCN(CCCNc2c(F)cc3c(=O)c(C(=O)N4CCN(C)CC4)cn4c3c2Oc2ccccc2-4)CC1 [compound 1582]	> 15
CC(C)(C)OC(=O)NC1CCN(c2c(F)cc3c(=O)c(C(=O)NCCCN4CCOCC4)cn4c3c2Oc2ccccc2-4)C1 (stereo not drawn) [compound 1583]	> 15
CC(C)(C)OC(=O)NC1CCN(c2c(F)cc3c(=O)c(C(=O)NCCN4CCOCC4)cn4c3c2Oc2ccccc2-4)C1 (stereo not drawn) [compound 1584]	> 15
CN1CCN(CCCNC(=O)c2cn3c4c(c(N5CCC(NC(=O)OC(C)(C)C)C5)c(F)cc4c2=O)Oc2ccccc2-3)CC1 (stereo not drawn) [compound 1585]	> 15

SMILES	IC50 [µM]
CC(C)(C)OC(=O)NC1CCN(C(=O)c2cn3c4c(c(N5CCC(NC(=O)OC(C)(C)C)C5)c(F)cc4c2=O)Oc2ccccc2-3)C1 (stereo not drawn) [compound 1586]	> 15
CN1CCCC1CCNC(=O)c1cn2c3c(c(N4CCC(NC(=O)OC(C)(C)C)C4)c(F)cc3c1=O)Oc1ccccc1-2 (stereo not drawn) [compound 1587]	> 15
CN(C)CCCCNC(=O)c1cn2c3c(c(N4CCC(NC(=O)OC(C)(C)C)C4)c(F)cc3c1=O)Oc1ccccc1-2 (stereo not drawn) [compound 1588]	> 15
CC(C)(C)OC(=O)NC1CCN(c2c(F)cc3c(=O)c(C(=O)NCCCCN)cn4c3c2Oc2ccccc2-4)C1 (stereo not drawn) [compound 1589]	> 15
CN(C)CC(C)(C)CNC(=O)c1cn2c3c(c(N4CCC(NC(=O)OC(C)(C)C)C4)c(F)cc3c1=O)Oc1ccccc1-2 (stereo not drawn) [compound 1590]	> 15
CC1(C)CC(NC(=O)c2cn3c4c(c(N5CCC(NC(=O)OC(C)(C)C)C5)c(F)cc4c2=O)Oc2ccccc2-3)CC(C)(C)N1 (stereo not drawn) [compound 1591]	> 15
O=C(NCCCN1CCOCC1)c1cn2c3c(c(NCCN4CCCC4)c(F)cc3c1=O)Oc1ccccc1-2 [compound 1592]	> 15
O=C(NCCN1CCOCC1)c1cn2c3c(c(NCCN4CCCC4)c(F)cc3c1=O)Oc1ccccc1-2 [compound 1593]	> 15
CN1CCN(CCCNC(=O)c2cn3c4c(c(NCCN5CCCC5)c(F)cc4c2=O)Oc2ccccc2-3)CC1 [compound 1594]	> 15
CC(C)(C)OC(=O)NC1CCN(C(=O)c2cn3c4c(c(NCCN5CCCC5)c(F)cc4c2=O)Oc2ccccc2-3)C1 (stereo not drawn) [compound 1595]	> 15
CN1CCCC1CCNC(=O)c1cn2c3c(c(NCCN4CCCC4)c(F)cc3c1=O)Oc1ccccc1-2 (stereo not drawn) [compound 1596]	> 15
O=C(NCCN1CCCC1)c1cn2c3c(c(NCCN4CCCC4)c(F)cc3c1=O)Oc1ccccc1-2 [compound 1597]	> 15
CN(C)CCCCNC(=O)c1cn2c3c(c(NCCN4CCCC4)c(F)cc3c1=O)Oc1ccccc1-2 [compound 1598]	> 15
NCCCCNC(=O)c1cn2c3c(c(NCCN4CCCC4)c(F)cc3c1=O)Oc1ccccc1-2 [compound 1599]	> 15
CN(C)CC(C)(C)CNC(=O)c1cn2c3c(c(NCCN4CCCC4)c(F)cc3c1=O)Oc1ccccc1-2 [compound 1600]	> 15
O=C(c1cn2c3c(c(NCCN4CCCC4)c(F)cc3c1=O)Oc1ccccc1-2)N1CCC(N2CCCC2)CC1 [compound 1601]	> 15
CN1CCN(C(=O)c2cn3c4c(c(NCCN5CCCC5)c(F)cc4c2=O)Oc2ccccc2-3)CC1 [compound 1602]	> 15
CC1(C)CC(NC(=O)c2cn3c4c(c(NCCN5CCCC5)c(F)cc4c2=O)Oc2ccccc2-3)CC(C)(C)N1 [compound 1603]	> 15
O=C(NCCCN1CCOCC1)c1cn2c3c(c(NCCN4CCOCC4)c(F)cc3c1=O)Oc1ccccc1-2 [compound 1604]	> 15
O=C(NCCN1CCOCC1)c1cn2c3c(c(NCCN4CCOCC4)c(F)cc3c1=O)Oc1ccccc1-2 [compound 1605]	> 15
CN1CCN(CCCNC(=O)c2cn3c4c(c(NCCN5CCOCC5)c(F)cc4c2=O)Oc2ccccc2-3)CC1 [compound 1606]	> 15
CC(C)(C)OC(=O)NC1CCN(C(=O)c2cn3c4c(c(NCCN5CCOCC5)c(F)cc4c2=O)Oc2ccccc2-3)C1 (stereo not drawn) [compound 1607]	> 15
CN1CCCC1CCNC(=O)c1cn2c3c(c(NCCN4CCOCC4)c(F)cc3c1=O)Oc1ccccc1-2 (stereo not drawn) [compound 1608]	> 15
O=C(NCCN1CCCC1)c1cn2c3c(c(NCCN4CCOCC4)c(F)cc3c1=O)Oc1ccccc1-2 [compound 1609]	> 15
